What was measured:
[1] = biological target: T1, human adenosine A2A receptor (Homo sapiens, UniProt P29274); assay: Antagonizing effect on human adenosine A2A receptor (NECA-stimulated cAMP, TR-FRET, HEK-293 cells); type: cell-based; conditions: inhibition of cAMP produced by NECA (3 nM), HEK-293 cells expressing human recombinant A2A receptor
T1 construct: expressed in transfected cells; host or cells: HEK-293
Procedure: The experimental system uses human recombinant adenosine A2A receptor, which is stably expressed in HEK-293 cell line. HEK-293 cells were inoculated into culture plate at a density of 1.25×10^5 cells/mL. The medium was changed by modified HBSS solution with pH 7.4, different concentrations of test compounds ([…], 1 μM, […], 10 nM, 1 nM, 0.1 nM) and solvents (PBS with 0.1% DMSO) were added, and the plate was incubated at 37° C. for 10 min. cAMP (cyclic adenosine monophosphate) concentration in culture medium was detected by TR-FRET method. NECA was used as a positive control in this experiment, (1) test compounds alone were used to stimulate cells to produce a certain amount of cAMP, and then NECA (0.1 μM) alone was used to stimulate cells to produce a certain amount of cAMP. A test compound is considered to have agonistic activity on adenosine A2A receptor if the test compound alone stimulates cells to produce cAMP more than 50% of the amount of cAMP produced by NECA (0.1 μM) alone. (2) All cells were first incubated with test compounds and then stimulated with NECA (3 nM). In addition, NECA (3 nM) alone was used to stimulate cells to produce a certain amount of cAMP. […] IC50 was calculated using MathIQ™ (ID Business Solutions Ltd., UK) through nonlinear, least squares regression equation analysis.

[2] = Pharmacokinetic evaluation in rats after intravenous or gavage administration; type: in vivo, SD rats; conditions: for AUC(0-inf) / AUC(0-t) / Cmax / MRT inf / Tmax / clearance / half-life / Vd: SD, rat, plasma; for Vd: read-out: Vss; for F: gavage 5 mg/kg vs intravenous 1 mg/kg
Procedure: (§1) The LC-MS/MS system for analysis includes the Agilent 1200 series vacuum degasser, a quaternary pump, an orifice plate sampler, a thermostatted column oven, and an API4000Qtrap triple quadrupole mass spectrometer with an electrospray ionization source (ESI).
(§2) Waters ACQUITY UPLC CSH C18, 2.1×50 mm, 1.7 μm column was used for analysis, and 0.8 μL of sample was injected. Analytical conditions: mobile phase was H2O+2 mM HCOONH4 (ammonium formate)+0.1% FA (formic acid) (mobile phase A) and MeOH (methanol)+2 mM HCOONH4 (ammonium formate)+0.1% FA (formic acid) (mobile phase B). Flow rate was 0.7 mL/min.
The experiment was divided into two groups: one was administered by intravenous injection, and the other was administered by intragastric administration. The compound of the present invention was administered to a test animal (overnight fast for 12 hours) in the form of 10% DMA (heating)+60% PEG400+30% saline solution. For the group of intravenous administration, the administration dose was 1 mg/kg, and vein blood samples (0.3 mL) were collected at the time points of 0.083, 0.25, 0.5, 1.0, 2.0, 5.0, 7.0 and 24 h after administration. EDTA-K2 as anticoagulant was added into the blood vessel. The plasma solutions were collected by centrifuging each blood sample at 3,000 rpm or 4,000 rpm for 10 minutes and kept at −20° C. or −70° C. For the group of intragastric administration, the administration dose was 5 mg/kg, and vein blood samples (0.3 mL) were collected at the time points of 0.25, 0.5, 1.0, 2.0, 5.0, 7.0 and 24 h after administration. EDTA-K2 as anticoagulant was added into the blood vessel. The plasma solutions were collected by centrifuging each blood sample at 3,000 rpm or 4,000 rpm for 10 minutes and kept at −20° C. or −70° C.
20 μL of plasma was taken, 120 μL of IS working solution was added to the plasma, and the plasma was vortexed for 2 min. The mixed solution was then centrifuged at 12,000 rpm for 2 min. 100 μL of the supernatant was taken, 110 μL of MeOH/H2O (v/v=1/1) was added, and the solution was vortexed for 2 minutes, then 5 μL was taken for injection into the LC-MS/MS system. LC-MS/MS method was used to detect the concentration of target compounds, and non-compartment model was used to calculate pharmacokinetic parameters.

[3] = Pharmacokinetic evaluation in beagles after intravenous or gavage administration; type: in vivo; conditions: for AUC(0-inf) / AUC(0-t) / Cmax / MRT inf / Tmax / clearance / half-life / Vd: beagle, dog, plasma; for Vd: read-out: Vss; for F: gavage 2.5 mg/kg vs intravenous 0.5 mg/kg
Procedure: The test animals are mice and/or dogs.
as §1
as §2, with “A waters xbridge C18 UPLC,” for “Waters ACQUITY UPLC CSH C18,”, “[…]” for “1.7 μm”, “analysis” for “analysis,”, “0.5” for “0.8”, “The flow” for “Flow”
The experiment was divided into two groups: one was administered by intravenous injection, and the other was administered by intragastric administration. The compound of the present invention was administered to test animals in the form of 10% DMA+60% PEG400+30% saline solution. […] Each blood sample was centrifuged at 3,000 rpm or 4,000 rpm for 10 minutes. The plasma solutions were collected and anticoagulant was EDTA-K2. The plasma solutions were then kept at −20° C. or −70° C. […]
10 μL of plasma was taken, 120 μL of IS working solution was added to the plasma, and the plasma was vortexed for 2 min. The mixed solution was then centrifuged at 12,000 rpm for 2 min. 80 μL of the supernatant was taken, 140 μL of MeOH/H2O (v/v=1/1) was added, and the solution was vortexed for 2 minutes, then 1.0 μL was taken for injection into the LC-MS/MS system. LC-MS/MS method was used to detect the concentration of target compounds, and non-compartment model was used to calculate pharmacokinetic parameters.

[4] = intravenous injection, 0.5 mg/kg

T1 sequence (P29274 whole entry): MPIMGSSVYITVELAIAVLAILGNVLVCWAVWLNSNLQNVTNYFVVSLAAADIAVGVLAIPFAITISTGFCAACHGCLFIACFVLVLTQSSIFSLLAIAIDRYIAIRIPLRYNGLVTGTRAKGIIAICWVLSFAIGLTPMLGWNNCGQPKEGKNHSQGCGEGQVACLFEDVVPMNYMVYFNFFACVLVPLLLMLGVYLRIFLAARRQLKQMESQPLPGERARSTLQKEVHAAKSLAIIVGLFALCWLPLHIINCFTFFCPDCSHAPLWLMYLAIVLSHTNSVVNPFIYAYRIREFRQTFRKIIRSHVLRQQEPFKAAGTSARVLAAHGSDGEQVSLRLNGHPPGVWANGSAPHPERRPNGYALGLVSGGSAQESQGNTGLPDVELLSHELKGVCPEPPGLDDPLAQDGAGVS

Compound | IC50 [1] [nM] | AUC(0-inf) ([2]; intravenous injection, 1 mg/kg) [ng·h/mL] | AUC(0-t) ([2]; intravenous injection, 1 mg/kg) [ng·h/mL] | Cmax ([2]; intravenous injection, 1 mg/kg) [ng/mL] | MRT inf ([2]; intravenous injection, 1 mg/kg) [h] | Tmax ([2]; intravenous injection, 1 mg/kg) [min] | clearance ([2]; intravenous injection, 1 mg/kg) [mL/min/kg] | half-life ([2]; intravenous injection, 1 mg/kg) [min] | Vd ([2]; intravenous injection, 1 mg/kg) [L/kg] | AUC(0-inf) ([2]; po, gavage, 5 mg/kg) [ng·h/mL] | AUC(0-t) ([2]; po, gavage, 5 mg/kg) [ng·h/mL] | Cmax ([2]; po, gavage, 5 mg/kg) [ng/mL] | MRT inf ([2]; po, gavage, 5 mg/kg) [h] | Tmax ([2]; po, gavage, 5 mg/kg) [min] | half-life ([2]; po, gavage, 5 mg/kg) [min] | F [2] [%] | AUC(0-inf) [3, 4] [ng·h/mL] | AUC(0-t) [3, 4] [ng·h/mL] | Cmax [3, 4] [ng/mL] | MRT inf [3, 4] [h] | other results
CCn1c(=O)c2c(nc(/C=C/c3ccc(OC4CCNCC4)cc3)n2C)n(CC)c1=O [Example 1, (E)-1,3-diethyl-7-methyl-8-(4-(piperidin-4-yloxy)styryl)-1H-purine-2,6(3H,7H)-dione] | 550 |  |  |  |  |  |  |  |  |  |  |  |  |  |  |  |  |  |  |  | 
CCN1CCC(Oc2ccc(/C=C/c3nc4c(c(=O)n(CC)c(=O)n4CC)n3C)cc2)CC1 [Example 3, (E)-1,3-diethyl-7-methyl-8-(4-((1-ethylpiperidin-4-yl)oxy)styryl)-1H-purine-2,6(3H,7H)-dione] | 1480 |  |  |  |  |  |  |  |  |  |  |  |  |  |  |  |  |  |  |  | 
CCn1c(=O)c2c(nc(/C=C/c3ccc(OC4CCN(C(C)=O)CC4)cc3)n2C)n(CC)c1=O [Example 6, (E)-8-(4-((1-acetylpiperidin-4-yl)oxy)styryl)-1,3-diethyl-7-methyl-1H-purine-2,6 (3H,7H)-dione] | 350 | 6290 | 6230 | 1610 | 4.37 | 4.98 | 2.65 | 229 | 0.696 | 40400 | 36900 | 2930 | 9.22 | 90 | 418 | 118.4 | 6110 | 5830 | 634 | 7.37 | Tmax [3, 4]: 15 min; clearance [3, 4]: 1.36 mL/min/kg; half-life [3, 4]: 349 min; Vd [3, 4]: 0.604 L/kg; AUC(0-inf) ([3]; po, gavage, 2.5 mg/kg): 56500 ng·h/mL; AUC(0-t) ([3]; po, gavage, 2.5 mg/kg): 47200 ng·h/mL; Cmax ([3]; po, gavage, 2.5 mg/kg): 3320 ng/mL; MRT inf ([3]; po, gavage, 2.5 mg/kg): 12.5 h; Tmax ([3]; po, gavage, 2.5 mg/kg): 160 min; half-life ([3]; po, gavage, 2.5 mg/kg): 547 min; F [3]: 170.5%
CCn1c(=O)c2c(nc(/C=C/c3ccc(OC4CCN(S(C)(=O)=O)CC4)cc3)n2C)n(CC)c1=O [Example 8, (E)-1,3-diethyl-7-methyl-8-(4-((1-(methylsulfonyl)piperidin-4-yl)oxy)styryl)-1H-purine-2,6(3H, 7H)-dione] | 750 | 1830 | 1810 | 817 | 3.1 | 4.98 | 9.1 | 278 | 1.69 | 11900 | 11900 | 2030 | 4.07 | 100 | 168 | 131.5 | 6310 | 4990 | 775 | 14.4 | Tmax [3, 4]: 4.98 min; clearance [3, 4]: 1.32 mL/min/kg; half-life [3, 4]: 566 min; Vd [3, 4]: 1.14 L/kg; AUC(0-inf) ([3]; po, gavage, 2.5 mg/kg): 31800 ng·h/mL; AUC(0-t) ([3]; po, gavage, 2.5 mg/kg): 22700 ng·h/mL; Cmax ([3]; po, gavage, 2.5 mg/kg): 1720 ng/mL; MRT inf ([3]; po, gavage, 2.5 mg/kg): 18.1 h; Tmax ([3]; po, gavage, 2.5 mg/kg): 40 min; half-life ([3]; po, gavage, 2.5 mg/kg): 690 min; F [3]: 91.1%

Source: patent publication US20230017597A1, “8-SUBSTITUTED STYRYL XANTHINE DERIVATIVES AND USES THEREOF” (SUNSHINE LAKE PHARMA CO., LTD., priority 2019, published 2023)
